System: apocrine gland adenocarcinoma, metastatic to lymph node
Experiment: Oral inorganic mercury (II) treatment of a pet Labrador Retriever after surgical removal of the lump: blood data and clinical follow-up
Type: in vivo, dog
Set-up: MCV / MCH / MCHC / Neutrophils, absolute / Bands / Lymphocytes, absolute / Monocytes, absolute / Eosinophils, absolute / Basophils, absolute: unit not given here
Method: A 7 years old, 106 lbs male Labrador Retriever, was diagnosed with apocrine gland adenocarcinoma, metastatic to lymph node. The lump on the neck was surgically removed and biopsy analysis was performed.
The owner chose not to pursue chemo- and radiation therapies. Instead, the dog undertook a full course of inorganic mercury (II) treatment. The treatment consisted of total of 150 days including three 30-day treatment courses and two 30-day interval periods between courses. The formulation contained 1 mM mercury acetate in 20 mM sodium acetate buffer, pH 4.5, with 100 mM sucrose and 150 mM sodium chloride additives. The formulation was introduced orally to the pet three times a day 1 hour before taking food at 0.5 micromole Hg^2+/kg/day.
The blood data at Day 175 were normal (see Table 1).

## CC(=O)[O-].CC(=O)[O-].[Hg+2] [inorganic mercury (II), mercury acetate]
13 months after completing the treatment
  health of the dog: continues to be healthy
Day 175
  ALT (SGPT): 52 U/L
  AST (SGOT): 29 U/L
  Albumin: 3.9 g/dL
  Albumin/Globulin Ratio: 1.1
  Alkaline Phosphatase (ALP): 94 U/L
  BUN/Creatinine Ratio: 17
  Bands: 0
  Basophils, absolute: 0
  CPK: 267 U/L
  Calcium: 10.3 mg/dL
  Chloride: 115 mE/L
  Cholesterol: 322 mg/dL
  Creatinine: 1.2 mg/dL
  Eosinophils, (%): 5%
  Eosinophils, absolute: 445
  Globulin: 3.4 g/dL
  Glucose: 105 mg/dL
  Hematocrit: 53.7%
  Hemoglobin: 17.7 g/dL
  Lymphocytes, (%): 31%
  Lymphocytes, absolute: 2759
  MCH: 21.9
  MCHC: 33.0
  MCV: 66
  Monocytes, (%): 4%
  Monocytes, absolute: 356
  Neutrophils, (%): 60%
  Neutrophils, absolute: 5340
  Phosphorus: 4.6 mg/dL
  Platelet count: 294 10^3/microl
  Potassium: 5.1 mE/L
  RBC: 8.1 10^6/microl
  Sodium: 151 mE/L
  Total Billirubin: 0.2 mg/dL
  Total Protein: 7.3 g/dL
  Urea Nitrogen: 20 mg/dL
  WBC: 8.9 10^3/microl
  blood data: normal
Day 356, owner's notes
  metastases on chest x-ray: no metastases
Post treatment evaluation by oncologist and veterinarian, X-rays and ultrasound
  metastasis or new mass growth in abdominal, lymph nodes or chest: no evidence of metastasis or new mass growth
